Assay results published in article PMC12081876, “Identification of PTGR2 inhibitors as a new therapeutic strategy for diabetes and obesity” (EMBO Molecular Medicine, 2025).
Several values for one entry are separate records, joined by “and”; a condition that tells them apart may be missing. Equal entries are not always repeated.

Legend:
[1] = test system: PPARγ-null 3T3-L1 clones rescued with wild-type mPPARγ; experiment: Insulin-stimulated glucose uptake in PPARγ-null 3T3-L1 clones rescued with wild-type mPPARγ; assay type: cell-based, mouse; details: for insulin-stimulated glucose uptake, Fig 1P left panel replicates: rescued with wild-type mPPARγ
Experimental: Gene editing was performed in 3T3-L1 preadipocytes using the clustered regularly interspaced short palindromic repeats (CRISPR)/Cas9 system. Two single-guide RNAs (sgRNA) (Appendix Table S5) targeting exon 6 of mouse Pparγ were designed using a web-based design tool (http://crispr.mit.edu/). These oligonucleotides were cloned into the pSurrogate reporter and pAll-Cas9.Ppuro vector obtained from Academia Sinica, Taiwan. The pSurrogate reporter contains an EGFP and an out-of-frame mCherry downstream of the sgRNA; the pAll-Cas9.Ppuro vector expresses Cas9 nuclease and sgRNA. Once a double-strand breaking at the target site in pSurrogate reporter plasmid was created by Cas9, insertions and deletions (indels) could be introduced at the cleaved site. The indels cause frameshifts and result in the expression of the mCherry gene. 3T3-L1 preadipocytes were co-transfected with pSurrogate reporter and pAll-Cas9.Ppuro vectors at 80-90% confluency using PolyJet™ transfection reagent (cat. no. SL100688, SignaGen Laboratories, USA). Two days after transfection, EGFP/mCherry double-positive cells were enriched by fluorescent-activated cell sorting. Single cells were isolated and expanded. The genomic DNA was amplified by PCR and sequenced to confirm the knockout cell lines. The primer sequences are shown in Appendix Table S5.
The mPPARγ C313A DNA sequence was amplified from pCMV6-Pparg C313A and subcloned into the pLVX-IRES-Neo vector with XhoI/NotI restriction sites. The lentiviral expression plasmids, pMD.G, and pCMVΔR8.91 (RNAi Core, Academia Sinica, Taiwan), were co-transfected into HEK293T cells. […] HSP70 was probed with an anti-HSP70 antibody (cat. no. ab45133, Abcam) as a loading control.
Differentiated 3T3-L1 cells were starved with serum-free DMEM containing 0.2% BSA (cat. no. A9647, Sigma-Aldrich). […] Uptake of 2DG was terminated by rapidly removing medium and washing with ice-cold PBS three times. Cells were lysed with 0.1% SDS, and the radioactivity was measured using a liquid scintillation counter. Insulin-mediated glucose uptake was calculated by subtracting insulin-treated glucose uptake with basal glucose uptake.

[2] = test system: HFHSD-fed obese C57BL6/J mice; experiment: Fasting glucose in HFHSD-fed mice; assay type: in vivo, mouse; set-up: Fasting glucose, Average / Fasting glucose (individual mouse): unit not given here; details: for Fasting glucose, Average / Fasting glucose (individual mouse): Figure 5K; for Fasting glucose, Average: 100 mg/kg/day; for Fasting glucose (individual mouse): BPRPT0245 group
Experimental: Ptgr2^+/+ and Ptgr2^−/− mice were created by the Transgenic Mouse Model Core Facility of the National Core Facility for Biopharmaceuticals, Ministry of Science and Technology, Taiwan and the Animal Resources Laboratory of National Taiwan University Centers of Genomic and Precision Medicine. C57BL6/J mice were purchased from National Laboratory Animal Center. All animal experiments were performed according to institutional ethical guidelines and were approved by the Institutional Animal Care and Use Committee (IACUC) of National Taiwan University Medical College (IACUC No.: 20140456). All mice were housed under standard conditions at 23 °C and 12/12 h. light/dark (7 AM–7 PM) cycle in animal centers of the National Taiwan University Medical College, which is accredited by the Association for Assessment and Accreditation of Laboratory Animal Care International (AAALAC). Mice were provided shelters and sticks weekly. We used adequate anesthetic procedure to reduce pain, suffering and distress according to our animal center regulation. We reported expected or unexpected adverse events to the veterinarian of our animal center. The humane endpoints include 20% weight loss, rough hair coat, hunched posture, lethargy or persistent, or any condition interfering with eating or drinking. Eight-week-old male mice were fed on either a high-fat high-sucrose diet (HFHSD) (cat. no. D12331, Research Diets) or a regular chow diet (cat no. 5001, Lab Diet). BPRPT0245 was dissolved 3% dimethylacetamide and 10% cremophor in water and administered daily to HFHSD-fed obese C57BL6/J mice by oral gavage (100 mg/kg/day).

hPTGR2 [3] = biological target: T1, hPTGR2 (Homo sapiens, UniProt Q8N8N7); experiment: Enzyme kinetics (Lineweaver–Burk) of hPTGR2 with 15-keto-PGE2; assay type: biochemical; set-up: made in house
T1 sequence (Q8N8N7 whole entry): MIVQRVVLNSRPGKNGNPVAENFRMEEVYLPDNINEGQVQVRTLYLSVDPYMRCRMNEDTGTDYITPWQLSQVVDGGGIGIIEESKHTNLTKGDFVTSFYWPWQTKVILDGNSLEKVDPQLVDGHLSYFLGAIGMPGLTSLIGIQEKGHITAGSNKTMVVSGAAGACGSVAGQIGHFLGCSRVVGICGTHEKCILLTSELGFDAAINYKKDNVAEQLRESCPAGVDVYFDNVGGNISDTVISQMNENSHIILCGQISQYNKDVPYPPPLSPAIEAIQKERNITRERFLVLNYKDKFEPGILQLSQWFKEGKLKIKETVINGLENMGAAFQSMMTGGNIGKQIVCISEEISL

hPTGR2 [4] = biological target: T1, hPTGR2; experiment: 15-keto-PGE2-dependent PPARγ trans-activation in PTGR2-transfected HEK293T cells; assay type: cell-based; set-up: expressed in transfected cells; host or cells: HEK293T; details: for Figure 5C relative PPARγ trans-activation (replicates): (+) Ptgr2
Source text: Based on these findings from the Ptgr2^−/− mice, we next searched for druggable chemical inhibitors that can effectively suppress human PTGR2 (hPTGR2) enzymatic activity. Using a high-throughput screening of 12,500 chemicals, we identified 31 hits and generated 282 derivatives using a molecular hybridization strategy among the hits. The in vitro IC50 (the half-maximal inhibitory concentration), EC50 (the concentration for half-maximal effect), and the compound’s activity to restore 15-keto-PGE2-dependent PPARγ trans-activation in HEK293T cells expressing recombinant PTGR2 were profiled.
Gal4-PPARγ/UAS-LUC reporter assay was conducted as previously described (Wu et al, [2008]) with minor modifications. Briefly, HEK293T cells were seeded in 24-well plates at 1 × 10^5 cells/well. After 24-h growth, a DNA solution containing UASG reporter construct, GAL4-PPAR expression plasmid, and TK-Rluc (Renilla luciferase) reporter construct (internal control) was transfected using TurboFect™ transfection reagent (cat. no. R0532, Thermo Fisher). Cells were treated and harvested after another 24 and 48 h, respectively. Luciferase activity was measured using Luc-Pair™ Duo-Luciferase HS Assay Kit (cat. no. LF600, Promega) and normalized with the TK reporter signal.

`CCCCCC(=O)CC[C@H]1[C@H](O)CC(=O)[C@@H]1C/C=C\CCCC(=O)O` [13,14-dihydro-15-keto-PGE2] was tested, and the “insulin-stimulated glucose uptake, Fig 1P left panel replicates” value ([1]; 1314-dihydro-15kPGE2 5) was 0.5765 and 0.8817 and 0.585 and 1.089.
With `Cc1[nH]c2nc(C(C)N3CCN(c4ccccc4)CC3)nn2c(=O)c1Cc1ccc(F)cc1` (stereo not shown) [BPRPT0245] the fasting plasma glucose ([2]; 100 mg/kg/day oral, HFHSD-fed mice, vs vehicle) was “lowered fasting plasma glucose”, the “Fasting glucose, Average” value ([2]; week 0) was 172.4 and the “Fasting glucose (individual mouse)” value ([2]; week 0) was 140 and 191 and 194 and 229 and 230 and 148 and 190 and 111 and 179. The “Fasting glucose, Average” value ([2]; week 2) was 215, the “Fasting glucose (individual mouse)” value ([2]; week 2) was 178 and 220 and 216 and 291 and 182 and 199 and 225 and 148 and the “Fasting glucose, Average” value ([2]; week 4) was 172.4. For the same compound, the “Fasting glucose (individual mouse)” value ([2]; week 4) was 162 and 198 and 190 and 178 and 194 and 163 and 177, the “Fasting glucose, Average” value ([2]; week 6) was 168.6 and the “Fasting glucose (individual mouse)” value ([2]; week 6) was 151 and 215 and 171 and 164 and 188 and 139 and 181. For the same compound, the “Fasting glucose, Average” value ([2]; week 8) was 182.6, the “Fasting glucose (individual mouse)” value ([2]; week 8) was 164 and 212 and 172 and 202 and 171 and 198 and 219 and the “Fasting glucose, Average” value ([2]; week 10) was 183.2. The “Fasting glucose (individual mouse)” value ([2]; week 10) was 224 and 198 and 153 and 169 and 162 and 150 and 171, the “Fasting glucose, Average” value ([2]; week 12) was 184.933 and the “Fasting glucose (individual mouse)” value ([2]; week 12) was 187 and 219 and 140 and 175 and 200 and 156 and 161 and 177. For the same compound, the “Fasting glucose, Average” value ([2]; week 14) was 181.467, the “Fasting glucose (individual mouse)” value ([2]; week 14) was 220 and 210 and 169 and 202 and 174 and 149 and 142 and the “Fasting glucose, Average” value ([2]; week 16) was 186.667. For the same compound, the “Fasting glucose (individual mouse)” value ([2]; week 16) was 212 and 199 and 167 and 164 and 191 and 183 and 171, the “Fasting glucose, Average” value ([2]; week 18) was 173.933 and the “Fasting glucose (individual mouse)” value ([2]; week 18) was 179 and 178 and 134 and 146 and 197 and 201 and 147 and 181 and 202. For the same compound, the “Fasting glucose, Average” value ([2]; week 20) was 159.8, the “Fasting glucose (individual mouse)” value ([2]; week 20) was 179 and 154 and 153 and 170 and 174 and 220 and 131 and 171 and 134 and the “Fasting glucose, Average” value ([2]; week 22) was 158.933. For the same compound, the “Fasting glucose (individual mouse)” value ([2]; week 22) was 195 and 156 and 123 and 149 and 148 and 163 and 132 and 201 and 161, the “Fasting glucose, Average” value ([2]; week 24) was 164.4 and the “Fasting glucose (individual mouse)” value ([2]; week 24) was 119 and 164 and 166 and 168 and 204 and 174. The “mode of inhibition (Lineweaver–Burk plot)” value (hPTGR2 [3]; BPRPT0245 50 nM) was “competitive hPTGR2 inhibitor”, the “Lineweaver-Burk plot value, average (Figure 5H)” value (from here on “Lineweaver-Burk plot value”) (hPTGR2 [3]; BPRPT0245 50 nM, 15-keto-PGE2(um) 0.01) was 0.05189 and the “Lineweaver-Burk plot value” value (hPTGR2 [3]; BPRPT0245 50 nM, 15-keto-PGE2(um) 0.0142857) was 0.06506. For the same compound, the “Lineweaver-Burk plot value” value (hPTGR2 [3]; BPRPT0245 50 nM, 15-keto-PGE2(um) 0.02) was 0.06763, the “Lineweaver-Burk plot value” value (hPTGR2 [3]; BPRPT0245 50 nM, 15-keto-PGE2(um) 0.025) was 0.07832 and the “Lineweaver-Burk plot value” value (hPTGR2 [3]; BPRPT0245 50 nM, 15-keto-PGE2(um) 0.0333333) was 0.1063. For the same compound, the “Lineweaver-Burk plot value” value (hPTGR2 [3]; BPRPT0245 50 nM, 15-keto-PGE2(um) 0.05) was 0.1377, the “Lineweaver-Burk plot value” value (hPTGR2 [3]; BPRPT0245 50 nM, 15-keto-PGE2(um) 0.1) was 0.2333 and the “Vmax (change on addition of inhibitor)” value (hPTGR2 [3]; with BPRPT0245 50 nM) was “remained unchanged”. It also gave an EC50 (hPTGR2 [4]; restoring 15-keto-PGE2-dependent PPARγ trans-activation, HEK293T expressing recombinant PTGR2) of 49.2 nM.
With `Cc1[nH]c2nc(C(C)N3CCN(c4ccccc4)CC3)nn2c(=O)c1Cc1ccc(F)cc1` (stereo not shown) [BPRPT245] the “Fasting glucose, Average” value ([2]; week 0) was 172.4, the “Fasting glucose, Average” value ([2]; week 2) was 215 and the “Fasting glucose, Average” value ([2]; week 4) was 172.4. For the same compound, the “Fasting glucose, Average” value ([2]; week 6) was 168.6, the “Fasting glucose, Average” value ([2]; week 8) was 182.6 and the “Fasting glucose, Average” value ([2]; week 10) was 183.2. For the same compound, the “Fasting glucose, Average” value ([2]; week 12) was 184.933, the “Fasting glucose, Average” value ([2]; week 14) was 181.467 and the “Fasting glucose, Average” value ([2]; week 16) was 186.667. The “Fasting glucose, Average” value ([2]; week 18) was 173.933, the “Fasting glucose, Average” value ([2]; week 20) was 159.8 and the “Fasting glucose, Average” value ([2]; week 22) was 158.933. The “Fasting glucose, Average” value ([2]; week 24) was 164.4, the “Figure 5C relative PPARγ trans-activation (replicates)” value (hPTGR2 [4]; 16nM) was 0.5809 and 0.5894 and 0.6256 and 0.6099 and 0.5702 and the “Figure 5C relative PPARγ trans-activation (replicates)” value (hPTGR2 [4]; 80nM) was 0.8628 and 0.8769 and 0.8751 and 0.836 and 0.7826. For the same compound, the “Figure 5C relative PPARγ trans-activation (replicates)” value (hPTGR2 [4]; 400nM) was 0.9481 and 0.8913 and 0.9158 and 0.7904 and 0.8206, the “Figure 5C relative PPARγ trans-activation (replicates)” value (hPTGR2 [4]; 2uM) was 0.9154 and 0.9224 and 0.8575 and 0.8409 and 0.8698 and the “Figure 5C relative PPARγ trans-activation (replicates)” value (hPTGR2 [4]; 10uM, (-) Ptgr2 about 1, (+) Ptgr2 alone 0.41-0.61) was 0.9406 and 0.9982 and 0.9802 and 0.9197 and 0.9012.
With `CCCCCC(=O)/C=C/[C@H]1[C@H](O)CC(=O)[C@@H]1C/C=C\CCCC(=O)O` [15-keto-PGE2, 15-keto-prostaglandin E2] the “insulin-stimulated glucose uptake, Fig 1P left panel replicates” value ([1]; 15kPGE2 1) was 0.8065 and 0.6857 and 0.06677 and 0.8595, the “insulin-stimulated glucose uptake, Fig 1P left panel replicates” value ([1]; 15kPGE2 5) was 1.281 and 2.22 and 0.9527 and 1.646 and the “insulin-stimulated glucose uptake, Fig 1P left panel replicates” value ([1]; 15kPGE2 10) was 2.206 and 2.06 and 1.8139 and 2.125. The “insulin-stimulated glucose uptake, PPARγ-null clone rescued with wild-type mPPARγ” value ([1]; clone #1296) was “enhanced insulin-stimulated glucose uptake in clone # 1296 when rescued with wild-type mPPARγ” and the Km (hPTGR2 [3]; read-out: Km between 15-keto-PGE2 and hPTGR2, without BPRPT0245) was 29.1 ± 0.77 µM.
